Measured values as given in US8952048B2, “Treatment of immune disorders using kainate receptor antagonists” (Virginia Commonwealth University, priority 2010, dated 2015).
“Also recorded” adds a separate entry of the source.

How the values were obtained:
[1] = test system: primary B cells; experiment: ADAM10 mRNA by qPCR in primary B cells; assay type: cell-based, human; details: 5 mM KA or glutamate, 30 minutes; normalized to beta-actin
Protocol: Alternatively when whole PBMC was used, buffy coats were obtained from the Virginia Blood Service Center (Richmond, Va.). PBMC were isolated by Ficoll gradient density centrifugation. All human studies research was performed in accordance to the Virginia Commonwealth University Institution Review Board per approved protocols. RT-PCR and qPCR. RNA was isolated via standard Trizol (Invitrogen) purification protocol and the Access Quick RT-PCR kit (Promega, Madison Wis.) was used with gene specific primers to examine for the presence of kainate receptor subunits and their transcript variants. Primers were designed using VectorNTI software (Invitrogen). Ready-made Primers® for G3PDH and all custom made primers for all sequences were synthesized by Integrated DNA Technologies (Coralville, Iowa). qPCR experiments were performed by the nucleic acid core in the ABI Prism® 7900 Sequence Detection System (Applied Biosystems, Foster City, Calif.) using the TaqMan® One Step PCR Master Mix Reagents Kit. All the samples were tested in triplicate using the following conditions: 48° C./30 min; 95° C./10 min; and 40 cycles of 95° C./15 sec and 60° C./1 min. The cycle threshold was determined to provide the optimal standard curve values (0.98 to 1.0). The probes and primers for ADAM10 (#Hs00153853_ml) were purchased from ABI. […] Relative ADAM10 mRNA is determined as a relative ratio based upon beta-actin.

[2] = test system: primary human B cells; experiment: Immunoglobulin production by primary human B cells (ELISA, 14 days); assay type: cell-based; details: for amount of IgE produced / effect on glutamate enhancement of IgG production: 14 days; for effect on glutamate enhancement of IgG production / effect on glutamate mediated increase in IgE production: 10 μM antagonist before culture; for effect on glutamate enhancement of IgG production: 5 mM glutamate
Protocol: (§1) Primary B cells or PBMC were cultured in the presence of 10 ng/mL IL-4 and 1 μg/mL anti-CD40 in complete culture media in the presence or absence of 5 mM KA or 5 mM Glu. When indicated, 200 ng/mL IL-21 was also added. For antagonism studies, prior to culture primary cells were treated with 10 μM vehicle (DMSO), NBQX, NS102, or TPM. After 14 days of culture, cell free supernatants were analyzed via ELISA for Ig levels. As cells are grown at various densities, line graphs represent Ig production as compared to cell density.
(§2) To determine the effect of ADAM10 inhibition on Ig production, purified human B cells were cultured with 10 ng/mL IL-4, 1 μg/mL anti-CD40, and 200 ng/mL IL-21 in complete culture media in the presence of DMSO as vehicle control or 10 μM ADAM10 specific inhibitor. Five days later, cell free supernatants were harvested for soluble CD23 release and fourteen days later, cell free supernatants were analyzed for Ig production. ELISAs. Human sCD23 ELISA was measured using a standard sandwich ELISA approach, using a mouse anti-CD23 (Clone BU38) coating antibody and sheep anti-CD23 (both from The Binding Site Birmingham, UK). Detection is performed with a goat anti-sheep IgG tagged with HRP (Southern Biotech Birmingham, Ala.). Determination of human IgE levels utilized a monoclonal mouse anti-human IgE antibody (clone 4.15) as a capture. Samples and standards were detected using a rabbit anti-human IgE-HRP (Southern Biotech) diluted in PBS/10% FBS. Human IgG or IgM were detected using a goat anti-human IgG or IgM followed by detection with a goat anti-human IgG or IgM tagged with HRP (All from Southern Biotech). Standards for the IgG and IgM ELISAs were purchased from Sigma. IgE standards were purified from JW8 hybridoma cells as previously described (Caven et al., 2005a). All assays utilized TMB substrate (BD Pharmingen San Diego, Calif.) and the reactions were stopped with 0.18M H2SO4. Plates are read at a wavelength of 450 nm on a SpectraMax 250 and data analyzed using SOFTmax PRO 3.1.2 software (Molecular Devices, Los Angeles, Calif.).

[3] = test system: primary human B cells; experiment: [3H]-thymidine proliferation assay, primary B cells; assay type: cell-based
Protocol: (§3) When PBMC is used the cell concentration is 100,000 cells/well. […] After 96 hours of growth, a 24 hr pulse [H^3]-thymidine (Perkin Elmer) was used. Plates were then harvested using a Filtermate cell harvester onto GFC plates. Assays were read using a Topcount Plate Counter (Perkin Elmer, Waltham, Mass.).

[4] = test system: Human PBMC; experiment: Immunoglobulin production in PBMC cultures (ELISA, 14 days); assay type: cell-based
Protocol: as §1, §2

[5] = test system: Human PBMC; experiment: Proliferation assay, PBMC; assay type: cell-based; details: addition of glutamate
Protocol: as §3

[6] = test system: B cells from KAR KO mice; experiment: In vitro culture of B cells from KAR KO mice with glutamate; assay type: cell-based, mouse; details: in the presence of glutamate; data not shown
[7] = test system: RPMI8866 cells; experiment: Soluble CD23 release assay in RPMI8866 cells; assay type: cell-based, human; details: for effect on increase in sCD23 release caused by KAR stimulation: 50 μM antagonist 1 hr prior to 5 mM KA or Glu; for effect on baseline sCD23 release: 50 μM antagonist, no KA or Glu
Protocol: For these studies, the CD23+ human B cell line RPMI8866 was grown in the presence or absence of 5 mM KA or Glu for 24 hours in CDMEM10 at a concentration of 1×10^6 cells/mL. For antagonist studies, prior to the addition of KA or Glu cells were pre-treated with 50 μM vehicle (DMSO), NBQX, NS 102, or TPM for one hour. After incubation, cell free supernatants were harvested and sCD23 levels determined by ELISA. […] Forty-eight hours later cell free supernatants were harvested for ELISA.
as §2

[8] = test system: B cells from SLE patients; experiment: SLE vs. normal donor B cell activity in the presence of antagonist; assay type: cell-based, human; details: Example 3, written in present tense
From the text: Peripheral blood from both SLE patients and normal donors is obtained. Presence of KARS: Specific KAR primers and Western protocols are used to analyze mRNA and protein expression, respectively, in cultured B cells from SLE patients. Flow cytometry is used to confirm cell surface expression. Comparison of the expression of KARs on B cells from normal vs. SLE patients, the presence of KARs on SLE patient B cells is confirmed.
B cells isolated from both donor populations are stimulated with anti-CD40 in the presence or absence of KAR activation to induce cellular proliferation. Differences among both groups both with and without KAR stimulation are determined. Proliferation is measured via H^3 thymidine incorporation as well as cell cycle divisions via CFSE dilution analysis.
B cells isolated from both populations are put in culture in the presence of IL-4 and anti-CD40, the two signals required for Ig production, in the presence or absence of KAR activation. After 14 days of culture, cell free supernatants are analyzed for total IgM, IgG, and IgE via ELISA. Furthermore, specificity of human antibodies is determined by employing commercially available human anti-nuclear antibody (ANA), anti-snRNP/Smith, and anti-dsDNA ELISA kits.
SLE vs. normal donor B cell activity is compared in the presence of at least one antagonist such as NS 102.

[9] = test system: GluK2 containing KARs; details: Verdoorn et al., 1994; cited from earlier work
[10] = IL-4, anti-CD40, IL-21, 5 mM glutamate, CDMEM-10, 14 days
[11] = anti-CD40, IL-4, IL-21, glutamate
[12] = 10 μM pretreatment 1 hour before glutamate

N[C@@H](CCC(=O)O)C(=O)O [glutamate, L-glutamic acid]
ADAM10 mRNA levels [1]: significant increase | total IgG production [2, 10]: Enhancement in IgG production was seen in all but the highest density cultures | total IgM levels [2, 10]: not influenced | amount of IgE produced ([2]; IL-4, anti-CD40 plus IL-21, 5 mM glutamate): much more IgE; also recorded: pronounced increase | cell proliferation ([3]; 5 mM glutamate, IL-4, anti-CD40, IL-21, 96 hours plus 24 hr pulse): significant increase in proliferation | IgE synthesis [4, 11]: very strong enhancement | IgM production [4, 11]: not significantly influenced | total IgG production [4, 11]: IgG enhancement was seen | proliferation [5]: also affected | Ig synthesis [6]: did not show any enhanced | proliferation [6]: did not show any enhanced | sCD23 release [6]: did not show any enhanced

O=C1Nc2c(cc([N+](=O)[O-])c3c2CCCC3)C1=NO [NS102, 5-Nitro-6,7,8,9-tetrahydro-1H-benzo[g]indole-2,3-dione 3-oxime]
effect on increase in sCD23 release caused by KAR stimulation ([7]; 24 hours): could prevent the significant increase | effect on baseline sCD23 release [7]: none of the antagonists have any effect | effect on glutamate enhancement of IgG production [2]: blocked | effect on glutamate mediated increase in IgE production [2, 10]: almost completely blocks | effect on glutamate mediated increase in IgE production ([2]; IL-4, anti-CD40, IL-21, 5 mM glutamate, CDMEM-10, 14 days, listed as NS-102): dramatically reduced | effect on glutamate-induced increase in proliferation ([3]; 10 μM pretreatment 1 hour before 5 mM glutamate): prevented | effect on glutamate increase in IgE production [4, 12]: strongly blocked | effect on glutamate increase in IgG production [4, 12]: strongly blocked | B cell hyperactivity in SLE patients [8]: overcomes the B cell hyperactivity | selectivity of KAR antagonism [9]: selectively antagonizes

C=C(C)[C@H]1CN[C@H](C(=O)O)[C@H]1CC(=O)O [KA, kainic acid]
amount of sCD23 released following KAR activation ([7]; 5 mM KA or Glu, 24 hours, CDMEM10): significant elevation | ADAM10 mRNA levels [1]: significant increase | amount of IgE produced ([2]; IL-4 and anti-CD40, CRPMI-10, 5 mM KA or Glu): strong and statistically significant increase

CC1(C)O[C@@H]2[C@@H](CO[C@@]3(COS(N)(=O)=O)OC(C)(C)O[C@@H]23)O1 [TPM, topiramate]
effect on increase in sCD23 release caused by KAR stimulation ([7]; 24 hours): no change is observed | effect on baseline sCD23 release [7]: none of the antagonists have any effect | effect on glutamate mediated increase in IgE production [2, 10]: did not influence IgE production

NS(=O)(=O)c1cccc2c1c([N+](=O)[O-])cc1nc(O)c(O)nc12 [NBQX]
effect on increase in sCD23 release caused by KAR stimulation ([7]; 24 hours): no change is observed | effect on baseline sCD23 release [7]: none of the antagonists have any effect | effect on glutamate enhancement of IgG production [2]: unaffected | effect on glutamate mediated increase in IgE production [2, 10]: no effect
